From US20240165151A1, “COMPOSITIONS AND METHODS FOR TREATING UPPER RESPIRATORY INFECTIONS” (priority 2020, published 2024)
Read-outs that look alike come from different tables or passages of the source. Marks after values point to notes of the source that are not given here.

Key:
influenza virus = conditions: cited from earlier work
SARS-CoV-2 [1] = conditions: cited from earlier work
SARS-CoV-2 [2] = format: cell-based; conditions: for Virus CCID50 per well ± SD: 22±2°C, average of 3 replicates; for LRV (log reduction value): compared to the virus control

CCOC(=O)C1=C[C@@H](OC(CC)CC)[C@H](NC(C)=O)[C@@H](N)C1 [Oseltamivir]
influenza RNA concentration decrease (influenza virus; on day 2): −1.19 log10 copies/mL | influenza RNA concentration decrease (influenza virus; on day 4): −0.68 log10 copies/mL

LY-CoV555: SARS-CoV-2 neutralizing antibody
relative SARS-CoV-2 RNA decrease versus placebo (SARS-CoV-2 [1]; day 3): −0.64 log10 copies/mL | relative SARS-CoV-2 RNA decrease versus placebo (SARS-CoV-2 [1]; day 7): −0.45 log10 copies/mL

CCO [EtOH (63%), Ethanol]
Virus CCID50 per well ± SD (SARS-CoV-2 [2]; contact time 2 minutes): <1.7**** log CCID50 per 0.1 mL | LRV (log reduction value) (SARS-CoV-2 [2]; contact time 2 minutes): >2.2 log10 | Virus CCID50 per well ± SD (SARS-CoV-2 [2]; contact time 10 minutes): <1.7**** log CCID50 per 0.1 mL | LRV (log reduction value) (SARS-CoV-2 [2]; contact time 10 minutes): >2.2 log10 | cytotoxicity in culture (Vero 76 cells): cytotoxic
